pEC50: −log10 of the molar value.

For 16 molecules, EC50 results are on record in patent US10597366B2, “Aryl ethers and uses thereof” (Peloton Therapeutics, Inc., priority 2013, dated 2020).

This assay has as its system 786-O-Hif-Luc cells (luciferase gene driven by multiple HIF responsive elements). Put plainly: Luciferase Assay. Type of assay: cell-based. Conditions: 24 h, 786-O-Hif-Luc cells, about 24 hours; read-out: Mean Luciferease EC50. As for the experimental part: A pool of infected cells were then selected against 2 μg/mL of puromycin (P8833, Sigma) for 10 days followed by limited dilution to select single clones.
Each concentration was tested in triplicate. After about 24 hours, luciferase activity was determined using ONE-Glo Luciferase Assay Reagent (E6110, Promega) following the manufacturer's recommended procedure. EC50 were calculated by using Dotmatics software.
The pEC50 is the EC50 on a negative log10 scale, so that one unit is a factor of ten. `CS(=O)(=O)c1ccc(Oc2cc(F)cc(Cl)c2)c(C(F)F)c1C#N` [Compound 92, 3-(3-Chloro-5-fluorophenoxy)-2-(difluoromethyl)-6-(methylsulfonyl)benzonitrile]: the pEC50 was 6.31.
Next, `CS(=O)(=O)c1ccc(Oc2cc(F)cc(F)c2)c(C(F)F)c1C#N` [Compound 93, 2-(Difluoromethyl)-3-(3,5-difluorophenoxy)-6-(methylsulfonyl)benzonitrile]: 6.17.
Next, `CS(=O)(=O)c1ccc(Oc2cc(F)cc(C#N)c2)c(C(F)F)c1C#N` [Compound 94, 3-(3-Cyano-5-fluorophenoxy)-2-(difluoromethyl)-6-(methylsulfonyl)benzonitrile]: 6.12; `N#Cc1cc(F)cc(Oc2ccc(S(=O)(=O)C(F)(F)F)c(C#N)c2Br)c1` [Compound 100, 2-Bromo-3-(3-cyano-5-fluorophenoxy)-6-((trifluoromethyl)sulfonyl)benzonitrile]: 5.12; `O=Cc1c(S(=O)(=O)C(F)(F)F)ccc(Oc2cc(F)cc(Cl)c2)c1Br` [Compound 101, 2-Bromo-3-(3-chloro-5-fluorophenoxy)-6-((trifluoromethyl)sulfonyl)benzaldehyde]: 6.49.
Next, `CC(O)c1c(S(=O)(=O)C(F)(F)F)ccc(Oc2cc(F)cc(Cl)c2)c1Br` (stereo not shown) [Compound 103, 1-(2-Bromo-3-(3-chloro-5-fluorophenoxy)-6-((trifluoromethyl)sulfonyl)phenyl)ethan-1-ol]: 5.48.
As for `CC(=O)c1c(S(=O)(=O)C(F)(F)F)ccc(Oc2cc(F)cc(Cl)c2)c1Br` [Compound 104, 1-(2-Bromo-3-(3-chloro-5-fluorophenoxy)-6-((trifluoromethyl)sulfonyl)phenyl)ethan-1-one], the pEC50 is 4.92.
In the case of `O=S(=O)(c1ccc(Oc2cc(F)cc(Cl)c2)c(Br)c1C=NO)C(F)(F)F` [Compound 107, 2-Bromo-3-(3-chloro-5-fluorophenoxy)-6-((trifluoromethyl)sulfonyl)benzaldehyde oxime] it was 6.28.
Turning to `O=S(=O)(c1ccc(Oc2cc(F)cc(Cl)c2)c(Br)c1CNCc1ccccc1)C(F)(F)F` [Compound 110, N-Benzyl-1-(2-bromo-3-(3-chloro-5-fluorophenoxy)-6-((trifluoromethyl)sulfonyl)phenyl)methanamine], the pEC50 is 5.19.
In the case of `N#Cc1c(S(=O)(=O)C(F)(F)F)ccc(Oc2cc(F)cc(Cl)c2)c1Cl` [Compound 111, 2-Chloro-3-(3-chloro-5-fluorophenoxy)-6-((trifluoromethyl)sulfonyl)benzonitrile] it was 5.86.
On to `O=Cc1c(S(=O)(=O)C(F)(F)F)ccc(Oc2cc(F)cc(Cl)c2)c1Cl` [Compound 112, 2-Chloro-3-(3-chloro-5-fluorophenoxy)-6-((trifluoromethyl)sulfonyl)benzaldehyde], for which the pEC50 is 6.47.
Next, `O=S(=O)(c1ccc(Oc2cc(F)cc(Cl)c2)c(Cl)c1CNCCF)C(F)(F)F` [Compound 114, N-(2-Chloro-3-(3-chloro-5-fluorophenoxy)-6-((trifluoromethyl)sulfonyl)benzyl)-2-fluoroethan-1-amine]: 5.05; `CS(=O)(=O)c1ccc(Oc2cncc(Cl)c2)c2c1[C@H](O)C(F)(F)C2` [Compound 115, (S)-4-((5-Chloropyridin-3-yl)oxy)-2,2-difluoro-7-(methylsulfonyl)-2,3-dihydro-1H-inden-1-ol]: 6.52.
Next, `N#Cc1cccc(Oc2ccc(S(=O)(=O)C(F)(F)F)cc2Br)c1` [Compound 117, 3-(2-Bromo-4-((trifluoromethyl)sulfonyl)phenoxy)benzonitrile]: 5.52; `N#Cc1cc(F)cc(Oc2ccc(S(=O)(=O)C(F)(F)F)cc2Br)c1` [Compound 118, 3-(2-Bromo-4-((trifluoromethyl)sulfonyl)phenoxy)-5-fluorobenzonitrile]: 5.82; `N#Cc1cc(F)cc(Oc2ccc(S(=O)(=O)C(F)(F)F)cc2C#N)c1` [Compound 120, 2-(3-Cyano-5-fluorophenoxy)-5-((trifluoromethyl)sulfonyl)benzonitrile]: 5.13.
